Target: T1, rTG-2 (recombinant human tissue transglutaminase-2) (Homo sapiens, UniProt P21980)
T1 construct: purchased Tocris Bioscience
T1 sequence (P21980 1-687): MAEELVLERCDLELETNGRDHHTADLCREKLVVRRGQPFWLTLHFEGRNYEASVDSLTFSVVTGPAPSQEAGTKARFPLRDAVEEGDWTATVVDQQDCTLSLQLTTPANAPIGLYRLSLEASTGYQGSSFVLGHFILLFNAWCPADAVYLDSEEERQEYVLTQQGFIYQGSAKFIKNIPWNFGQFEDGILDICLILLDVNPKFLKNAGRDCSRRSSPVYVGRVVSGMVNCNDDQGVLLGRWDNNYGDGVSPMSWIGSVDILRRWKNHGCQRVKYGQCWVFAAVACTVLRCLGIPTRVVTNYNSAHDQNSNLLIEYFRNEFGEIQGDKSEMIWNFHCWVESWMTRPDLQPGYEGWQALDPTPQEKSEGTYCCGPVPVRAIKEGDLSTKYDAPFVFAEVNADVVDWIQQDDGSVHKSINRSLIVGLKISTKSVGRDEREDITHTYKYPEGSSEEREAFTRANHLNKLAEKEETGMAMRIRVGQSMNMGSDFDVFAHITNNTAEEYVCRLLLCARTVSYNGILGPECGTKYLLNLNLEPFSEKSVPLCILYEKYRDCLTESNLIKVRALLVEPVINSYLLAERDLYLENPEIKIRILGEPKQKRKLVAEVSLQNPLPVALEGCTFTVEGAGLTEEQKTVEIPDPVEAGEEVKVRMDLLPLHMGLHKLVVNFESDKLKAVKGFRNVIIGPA
Experiment: bisubstrate, fluorescence-based trans-glutamination assay with recombinant TG-2
Type: biochemical
Excerpt: FXIIIa and TG-2 belong to the same transglutaminase superfamily, and they share similar protein folds with a sequence similarity of 34%. Although we believe that sulfonated heparin mimetics are less likely to distribute to peripheral tissues, we evaluated inhibitor 16′s potential to inhibit TG-2 (we used recombinant TG-2). […] Likewise, we studied the inhibition of papain, a related cysteine protease, by molecule 16.
Human plasma proteins such as FXIIIa, thrombin, factor Xa, and factor XIa were procured from Haematologic Technologies. Recombinant human TG-2 was sourced from Tocris Bioscience. Their activities were validated according to the supplier’s instructions. Chromogenic substrates for thrombin and factor Xa were acquired from Biomedica Diagnostics, while the factor XIa chromogenic substrate (S-2366) was obtained from Diapharma. Dithiothreitol, N,N-dimethylcasein, and dansylcadaverine were purchased from Sigma Aldrich. Stock solutions of thrombin and factor XIa were prepared in 50 mM Tris-HCl buffer, pH 7.4, containing 150 mM sodium chloride, 0.1% PEG8000, and 0.02% Tween80. The stock solution of factor Xa was prepared in 20 mM Tris-HCl buffer, pH 7.4, containing 100 mM sodium chloride, 0.1% PEG8000, 2.5 mM CaCl2, and 0.02% Tween80. The stock solutions of FXIIIa and rTG-2 were prepared in 50 mM Tris-HCl, 1 mM CaCl2, 100 mM sodium chloride, 0.02% Tween80, 0.1% PEG8000, and 2 mg/mL dimethylcasein. Papain and its chromogenic substrate (N-α-benzoyl-L-arginyl-4-nitroanilide) were obtained from Sigma Aldrich. Papain was prepared in 50 mM Tris-HCl buffer, pH 7.4, containing 100 mM NaCl, 100 mM DTT, 2.5 mM CaCl2, 0.1% PEG8000, and 0.02% Tween80. Human plasma for coagulation assays was obtained from George King Bio-Medica for the clotting assays. Thromboplastin-D (PT reagent), APTT reagent containing ellagic acid, and 0.025 M solution of CaCl2 were obtained from Thermo Fisher Scientific. Results were reproduced at least three times.
For tissue TG-2, a recombinant protein (rTG-2) was used in a bisubstrate, fluorescence-based trans-glutamination assay involving dansylcadaverine and N,N-dimethylcasein as substrates and under similar conditions used for human FXIIIa above. The activity of rTG-2 was monitored following the addition of 5 μL of dansylcadaverine (2 mM) by measuring the initial rate of increase in fluorescence emission (λEx. = 360 nm and λEm. = 490 nm). Relative residual rTG-2 activity at each concentration of inhibitor 16 was calculated from the ratio of rTG-2 activity in the presence and absence of the inhibitor. Logistic eq 1 was used to fit the concentration dependence of residual rTG-2 activity to obtain the IC50 and ΔY% of inhibition.

Nc1c(/N=N/c2ccc(S(=O)(=O)CCOS(=O)(=O)O)cc2)c(S(=O)(=O)O)cc2cc(S(=O)(=O)O)c(/N=N/c3ccc(S(=O)(=O)CCOS(=O)(=O)O)cc3)c(O)c12 [compound 16]
selectivity for FXIIIa over rTG-2: 9 fold
IC50 (recombinant TG-2): 18.1 ± 3.1 µM
rTG-2 HS (Hill slope) (recombinant TG-2): 2.2 ± 0.9
rTG-2 ΔY (recombinant TG-2): 86 ± 7%
